# Test results from patent publication US20240059700A1, “NOVEL DIACYLGLYCERIDE O-ACYLTRANSFERASE 2 INHIBITORS” (Merck Sharp & Dohme LLC, priority 2020, published 2024).
# Biological target: human DGAT2 (hDGAT2) (Homo sapiens (Human), UniProt Q96PD7)
# Assay: DGAT2 Enzymatic Activity Assay
# Type: biochemical
# Details: membrane prep of Sf-9 insect cells expressing hDGAT2; 13C18-triolein product by LC/MS/MS
# Experimental: Sf-9 insect cells were maintained in Grace's insect cell culture medium with 10% heated-inactivated fetal bovine serum, 1% Pluronic F-68 and 0.14 μg/ml Kanamycine sulfate at 27° C. in a shaker incubator. After infection with untagged baculovirus expressing human DGAT2 (hDGAT2) at multiplicity of infection (MOI) 3 for 48 hours, cells were harvested. Cell pellets were suspended in buffer containing 10 mM Tris-HCl pH 7.5, 1 mM EDTA, 250 mM sucrose and Complete Protease Inhibitor Cocktail (Sigma Aldrich), and sonicated on ice. Cell debris were removed by centrifugation at 2000×g for 15 minutes. Membrane fractions were isolated by ultracentrifugation (100,000×g), resuspended in the same buffer, and frozen (−80° C.) for later use. The protein concentration was determined with the Pierce™ BCA Protein Assay Kit (Thermo Fisher Scientific). Expression of protein levels was analyzed by immunoblotting with rabbit anti-DGAT2 antibody (Abcam, ab102831) and donkey anti-rabbit IgG H&L Alexa Fluor® 647 (Abcam, ab150075) followed by detection using Typhoon FLA9000 (GE Healthcare).
# LC/MS/MS analyses were performed using Thermal Fisher's LX4-TSQ Vantage system. This system consists of an Agilent binary high-performance liquid chromatography (HPLC) pumps and a TSQ Vantage triple quadrupole MS/MS instrument. For each sample, 2 μL samples from the top organic layer of in-plate liquid-liquid extraction were injected onto a Thermo Betabasic C4 column (2.1 mm×20 mm, 5 μm particle size). The samples were then eluted using the following conditions; mobile phase: Isopropanol: acetonitrile/10 mM ammonium formate=50/35/15 (v/v/v), flow rate: 0.8 mL/min, temperature: 25° C. Data was acquired in positive mode using a heated electrospray ionization (HESI) interface. The operational parameters for the TSQ Vantage MS/MS instrument were a spray voltage of 3000 V, capillary temperature of 280° C., vaporizer temperature 400° C., sheath gas 45 arbitrary unit, Aux gas 10 arbitrary units, S-lens 165 and collision gas 1.0 mTorr. […] (SRM) chromatograms of ^13C18-triolein (Q1: 920.8>Q3:621.3) and internal standard ^13C21-triolein (Q1: 923.8>Q3:617.3) were collected for 33 sec. The peak area was integrated by Xcalibur Quan software. The ratio between the ^13C18 triolein generated in the reaction and spiked in internal standard ^13C21-triolein was used to generate percentage inhibition and IC50 values. Compound percentage inhibition was calculated by the following formula: Inhibition %=1−[(compound response−low control)/(high control−low control)]×100%. Potent compounds were titrated and IC50 were calculated by 4 parameter sigmoidal curve fitting formula.
# DGAT2 activity was determined by measuring the amount of enzymatic product ^13C18-triolein (^13C-1,2,3-Tri(cis-9-octadecenoyl)glycerol) using the membrane prep mentioned above. The assay was carried out in ABgene 384-well assay plates in a final volume of 25 μL at rt. The assay mixture contained the following: assay buffer (100 mM Tris·Cl, pH 7.0, 20 mM MgCl2, 5% ethanol), 25 μM of diolein, 5 μM of ^13C oleoyl-CoA and 8 ng/μL of DGAT2 membrane.
# human DGAT2 (hDGAT2), sequence (Q96PD7 whole entry): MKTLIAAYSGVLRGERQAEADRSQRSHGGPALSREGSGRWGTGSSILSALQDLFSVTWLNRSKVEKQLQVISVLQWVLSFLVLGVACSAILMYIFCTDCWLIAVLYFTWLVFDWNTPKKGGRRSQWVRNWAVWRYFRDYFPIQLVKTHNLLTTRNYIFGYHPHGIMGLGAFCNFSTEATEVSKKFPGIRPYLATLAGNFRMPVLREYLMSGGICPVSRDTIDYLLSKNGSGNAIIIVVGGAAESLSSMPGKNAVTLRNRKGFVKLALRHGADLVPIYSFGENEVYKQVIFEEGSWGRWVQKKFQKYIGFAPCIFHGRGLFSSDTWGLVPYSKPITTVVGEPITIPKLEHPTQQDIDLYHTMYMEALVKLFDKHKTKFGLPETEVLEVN
row,IC50 [nM],Structure (SMILES)
1,17,"CC(C)n1nc(-c2cccc(OC(F)F)c2)c2ncc(C(=O)N[C@H]3CCCC[C@@H]3O)cc21 [Example 40, 3-[3-(difluoromethoxy)phenyl]-N-[(1S,2S)-2-hydroxycyclohexyl]-1-isopropyl-pyrazolo[4,3-b]pyridine-6-carboxamide]"
2,72,"CC(C)n1nc(-c2cccc(OC(F)F)c2)c2ncc(C(=O)N[C@@H]3CCC[C@H]3N3CCOCC3)cc21 [Example 41, 3-[3-(difluoromethoxy)phenyl]-1-isopropyl-N-[(1R,2R)-2-morpholinocyclopentyl]pyrazolo[4,3-b]pyridine-6-carboxamide]"
3,148,"CC(C)n1nc(-c2cccc(OC(F)F)c2)c2ncc(C(=O)NC(C)(C)C(C)(C)O)cc21 [Example 43, 3-(3-(difluoromethoxy)phenyl)-N-(3-hydroxy-2,3-dimethylbutan-2-yl)-1-isopropyl-1H-pyrazolo[4,3-b]pyridine-6-carboxamide]"
4,64,"CC(C)n1nc(-c2cccc(OC(F)F)c2)c2ncc(C(=O)N[C@H]3CCC[C@H]3O)cc21 [Example 44, 3-(3-(difluoromethoxy)phenyl)-N-((1S,2R)-2-hydroxycydopentyl)-1-isopropyl-1H-pyrazolo[4,3-b]pyridine-6-carboxamide]"

# More lines, now with the values behind:
row,Structure (SMILES),IC50 [nM]
1,"CC(C)(C)Cn1nc(-c2cccc(OC(F)F)c2)c2ncc(C(=O)NC3(C)CS(=O)(=O)C3)cc21 [Example 29, 3-(3-(difluoromethoxy)phenyl)-N-(3-methyl-1,1-dioxidothietan-3-yl)-1-neopentyl-1H-pyrazolo[4,3-b]pyridine-6-carboxamide]",388
2,"CC1(NC(=O)c2cnc3c(-c4cccc(OC(F)F)c4)nn(C4CC4)c3c2)CS(=O)(=O)C1 [Example 30, 1-cyclopropyl-3-(3-(difluoromethoxy)phenyl)-N-(3-methyl-1,1-dioxidothietan-3-yl)-1H-pyrazolo[4,3-b]pyridine-6-carboxamide]",99
3,"CC(C)n1nc(-c2cccc(OC(F)F)c2)c2ncc(C(=O)N[C@@]3(C)CCS(=O)(=O)C3)cc21 [Example 31, (S)-3-(3-(difluoromethoxy)phenyl)-1-isopropyl-N-(3-methyl-1,1-dioxidotetrahydrothiophen-3-yl)-1H-pyrazolo[4,3-b]pyridine-6-carboxamide]",7.2
4,"CC(C)n1nc(-c2cccc(OC(F)F)c2)c2c(F)cc(C(=O)NC3(C)CS(=O)(=O)C3)cc21 [Example 33, 3-(3-(difluoromethoxy)phenyl)-4-fluoro-1-isopropyl-N-(3-methyl-1,1-dioxidothietan-3-yl)-1H-indazole-6-carboxamide]",1
5,"CC(C)n1nc(-c2cccc(OC(F)F)c2)c2ccc(C(=O)NC3(C)CS(=O)(=O)C3)c(F)c21 [Example 34, 3-(3-(difluoromethoxy)phenyl)-7-fluoro-1-isopropyl-N-(3-methyl-1,1-dioxidothietan-3-yl)-1H-indazole-6-carboxamide]",5.2
6,"Cc1ncc(OC(F)F)cc1-c1nn(C(C)C)c2cc(C(=O)NC3(C)CS(=O)(=O)C3)ncc12 [Example 35, 3-(5-(difluoromethoxy)-2-methylpyridin-3-yl)-1-isopropyl-N-(3-methyl-1,1-dioxidothietan-3-yl)-1H-pyrazolo[4,3-c]pyridine-6-carboxamide]",285
7,"CC(C)n1nc(-c2cc(OC(F)F)ccc2F)c2cnc(C(=O)NC3(C)CS(=O)(=O)C3)cc21 [Example 36, 3-(5-(difluoromethoxy)-2-fluorophenyl)-1-isopropyl-N-(3-methyl-1,1-dioxidothietan-3-yl)-1H-pyrazolo[4,3-c]pyridine-6-carboxamide]",1.7
8,"CC(C)n1nc(-c2cccc(OC(F)F)c2)c2ncc(C(=O)N[C@]3(C#N)CCOC3)cc21 [Example 38, N-[(3S)-3-cyanotetrahydrofuran-3-yl]-3-[3-(difluoromethoxy)phenyl]-1-isopropyl-pyrazolo[4,3-b]pyridine-6-carboxamide]",11
